According to patent publication US7338959B2, “Diamino-pyrimidines and their use as angiogenesis inhibitors” (SmithKline Beecham Corporation, priority 2002, dated 2008):
Where a name gives a salt, the structure may show the parent alone.

Legend:
[1] = tested on: Human umbilical cord endothelial cells (HUVEC); assay: VEGF-driven cellular proliferation assay: BrdU incorporation assay (VEGF-C); format: cell-based; settings: 20 ng/ml VEGF
Experimental: VEGF-Driven Cellular Proliferation Assay: BrdU Incorporation Assay (VEGF-C)
Human umbilical cord endothelial cells (HUVEC, Clonetics, CC2519) were passaged in Type I collagen-coated 100-mm petridishes in EGM-MV medium (Clonetics, CC3125) at 37 C in a humidified 5% CO2, 95% air incubator. (HUVEC passaged more than 6 times in vitro were discarded and not subjected to assaying.) The cells were harvested using trypsin/EDTA, counted using a haemocytometer and plated at 5000 cells/well in a Type I-collagen coated 96-well plate (Becton Dickinson, 354407) in M199 medium (Gibco BRL, 12340-030) containing 5% FBS (Hyclone, A 1115-L) and gentamicin (at 50 ug/ml, Gibco BRL). After incubation overnight at 37° C., the media were replaced with 100 ul of M199 serum-free medium containing compounds at various concentrations with 0.6% DMSO and gentamicin. The compounds were diluted in serum-free M199 medium from 10 mM stock solutions prepared in 100% DMSO. After a 30 min incubation at 37° C., the cells were fed with 100 ul of serum-free M199 medium containing gentamicin, 0.2% culture-grade bovine serum albumin (BSA, Sigma A1993) and 20 ng/ml of VEGF (REtD systems, 293-VE) or 0.6 ng/ml of basic FGF (REtD systems, 233-FB), and cultured at 37° C. for another 24 h. The cells were pulsed with bromodeoxyuridine (BrdU at 10 uM in serum-free M199) at 37° C. for an additional 24 h. The incorporation of BrdU into the proliferating HUVEC were analyzed using BrdU Cell Proliferation ELISA (Roche Molecular Biochemicals, 1647229) according to the manufacturer's protocols. The optical density at 450 nm was measured with a multilabel counter (ARVO SX, Wallac). The percent inhibition of cell growth was calculated relative to blank control wells. The concentration of test compound that inhibits 50% of cell growth (IC50) was interpolated using nonlinear regression (Levernberg-Marquardt) and the equation, y=Vmax (1−x/(K+x))+Y2, where “K” was equal to the IC50. The IC50 values were converted to pIC50 values, i.e., −log IC50 in Molar concentration.

GST-VEGFR2 = target: T1, GST-VEGFR2 (Homo sapiens, UniProt P35968); assay: VEGF-R2 enzyme assay (VEGF-E), LANCE method; format: biochemical; settings: GST-VEGFR2, 75 uM ATP, biotinylated peptide
T1 construct: baculovirus expressed recombinant constructs of the intracellular domains of human TIE2 tagged by GST; made in house
Text: VEGF-R2 Enzyme Assay (VEGF-E)
The VEGF enzyme assay used the LANCE method (Wallac) and GST-VEGFR2, baculovirus expressed recombinant constructs of the intracellular domains of human TIE2 tagged by GST. The method measured the ability of the purified enzymes to catalyse the transfer of the γ-phosphate from ATP onto tyrosine residues in a biotinylated synthetic peptide, (biotin-aminohexyl-EEEEYFELVAKKKK-NH2). This peptide phosphorylation was detected using the following procedure: GST-VEGFR2 was incubated for 40-60 mins at room temperature with 75 uM ATP, 5 mM MgCl2, 0.1 mM DTT, 0.1 mg/mL BSA and the test compound (diluted from a 10 mM stock in DMSO for desired concentration) in 100 mM HEPES buffer. The reaction was stopped by the addition of EDTA (final concentration 50 mM). Streptavidin linked-APC (allophycocyanin, Molecular Probe) and Europium-labeled anti-phosphorylated tyrosine antibody (Wallac) were then added at the final concentration of 15 nM and 1 nM, respectively. The APC signal was measured using an ARVO multilabel counter (Wallac Berthold, Japan). The percent inhibition of activity was calculated relative to blank control wells. The concentration of test compound that inhibits 50% of activity (IC50) was interpolated using nonlinear regression (Levernberg-Marquardt) and the equation, y=Vmax (1−x/(K+x))+Y2, where “K” was equal to the IC50. The IC50 values were converted to pIC50 values, i.e., −log IC50 in Molar concentration.

Recombinant GST-Tie2 = Recombinant GST-Tie2 (Homo sapiens, UniProt Q02763); assay: Tie2 fluorescence polarization kinase activity assay (TIE2-FP); format: biochemical; settings: activated Tie2, 200 μM ATP, peptide substrate
Experimental: Tie2 Fluorescence Polarization Kinase Activity Assay: (TIE2-FP)
Activation of Recombinant Tie2 Activation:
Recombinant GST-Tie2 was activated by incubating the enzyme in 20 mM Tris-HCl, pH 7.5, 12 mM MgCl2, 100 mM NaCl, 20 μM sodium vanidate, 1 mM DTT and 300 μM ATP at room temperature for 2 hours. The activation mixture was then passed through a NAP-25 desalting column (Pharmacia Biotech cat. no. 17-0852-02) to remove the free ATP. The activated enzyme was stored as aliquots at −80° C. in 20 mM Tris-HCl, pH 7.5 and 100 mM NaCl.
The final assay conditions were 50 mM HEPES, pH 7.5, 5% DMSO (when screening compounds), 200 μM ATP, 5 mM MgCl2, 1 mM DTT, 50 μM sodium vanidate, 1 nM activated enzyme, and 200 μM peptide. IC50's of compounds were measured under subsaturating ATP (200 μM) and varing concentrations of activated Tie2 and peptide substrate (RFWKYEFWR-OH; MW 1873 Da, TFA salt). Panvera Anti-phosphotyrosine antibody (Cat#P2840) and PTK Green Tracer (Cat#P2842) were used to detect the phosphorylated peptide. Polarization was measured on a TECAN Polarion in 138-second cycles for 30 minutes at room temperature. IC50's were then determined from the % polarization using normal calculation methods.

T1 sequence (P35968 786-1356 limits assumed): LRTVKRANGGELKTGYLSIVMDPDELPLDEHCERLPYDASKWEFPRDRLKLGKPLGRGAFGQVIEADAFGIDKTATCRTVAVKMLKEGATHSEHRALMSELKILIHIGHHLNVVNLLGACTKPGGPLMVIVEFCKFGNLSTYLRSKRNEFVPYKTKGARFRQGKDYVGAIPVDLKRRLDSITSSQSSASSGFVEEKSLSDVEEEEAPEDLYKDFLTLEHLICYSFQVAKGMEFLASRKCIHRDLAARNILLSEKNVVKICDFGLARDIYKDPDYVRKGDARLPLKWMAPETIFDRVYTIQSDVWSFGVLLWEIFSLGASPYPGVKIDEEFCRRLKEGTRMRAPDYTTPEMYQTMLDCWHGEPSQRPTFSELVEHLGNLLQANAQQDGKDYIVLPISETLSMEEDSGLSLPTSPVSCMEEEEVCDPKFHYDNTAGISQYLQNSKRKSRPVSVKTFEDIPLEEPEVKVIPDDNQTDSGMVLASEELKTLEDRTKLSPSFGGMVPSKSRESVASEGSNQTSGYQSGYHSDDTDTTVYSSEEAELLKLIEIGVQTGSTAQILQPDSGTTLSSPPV
Sequence of Recombinant GST-Tie2 (Q02763 23-1124): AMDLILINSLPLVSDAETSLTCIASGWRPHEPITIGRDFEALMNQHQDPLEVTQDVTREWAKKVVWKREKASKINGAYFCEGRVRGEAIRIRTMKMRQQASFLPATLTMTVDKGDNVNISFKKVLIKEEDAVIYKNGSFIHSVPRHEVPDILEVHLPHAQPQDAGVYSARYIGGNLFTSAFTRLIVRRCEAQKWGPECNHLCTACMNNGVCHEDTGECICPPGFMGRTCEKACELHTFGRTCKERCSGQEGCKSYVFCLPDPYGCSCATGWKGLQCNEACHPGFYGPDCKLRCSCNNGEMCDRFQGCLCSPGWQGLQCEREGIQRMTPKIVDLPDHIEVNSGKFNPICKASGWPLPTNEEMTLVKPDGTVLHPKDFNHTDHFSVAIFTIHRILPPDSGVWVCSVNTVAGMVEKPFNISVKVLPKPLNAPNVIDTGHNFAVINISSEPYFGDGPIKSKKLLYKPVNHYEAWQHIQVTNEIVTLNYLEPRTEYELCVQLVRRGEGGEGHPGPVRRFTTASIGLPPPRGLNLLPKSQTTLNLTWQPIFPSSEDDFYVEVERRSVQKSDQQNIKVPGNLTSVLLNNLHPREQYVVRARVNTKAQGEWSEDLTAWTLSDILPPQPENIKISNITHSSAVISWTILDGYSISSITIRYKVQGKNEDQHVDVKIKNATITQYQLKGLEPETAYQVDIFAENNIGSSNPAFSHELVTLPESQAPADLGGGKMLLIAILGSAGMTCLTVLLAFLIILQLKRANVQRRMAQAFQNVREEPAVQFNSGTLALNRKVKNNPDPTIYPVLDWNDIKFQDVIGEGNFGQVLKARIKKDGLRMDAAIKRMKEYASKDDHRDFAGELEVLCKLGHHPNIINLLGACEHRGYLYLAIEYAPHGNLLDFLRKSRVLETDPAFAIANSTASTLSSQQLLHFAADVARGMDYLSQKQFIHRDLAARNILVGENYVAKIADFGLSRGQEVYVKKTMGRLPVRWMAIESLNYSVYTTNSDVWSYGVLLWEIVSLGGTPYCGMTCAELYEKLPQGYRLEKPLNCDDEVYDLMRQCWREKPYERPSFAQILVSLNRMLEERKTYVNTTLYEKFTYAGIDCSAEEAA

Molecule	IC50 (GST-VEGFR2)	IC50 (Recombinant GST-Tie2)	TIE2-FP (Recombinant GST-Tie2)	VEGF-E (GST-VEGFR2)	IC50 [1]
CC(C)Nc1nc2cc(N(C)c3ccnc(Nc4ccc(CS(C)(=O)=O)cc4)n3)ccc2n1C [Example 1, N^2-isopropyl-N^5,1-dimethyl-N^5-[2-({4-[(methylsulfonyl)methyl]phenyl}amino)pyrimidin-4-yl]-1H-benzimidazole-2,5-diamine hydrochloride]	< 100 nM				< 100 nM
CC(C)Nc1nc2cc(N(C)c3ccnc(Nc4ccc(CS(N)(=O)=O)cc4)n3)ccc2n1C [Example 2, hydrochloride]	< 100 nM				< 100 nM
CNc1nc2cc(N(C)c3ccnc(Nc4ccc(CS(C)(=O)=O)cc4)n3)ccc2n1C [Example 3, hydrochloride]	< 100 nM				< 100 nM
CN(c1ccc2c(c1)nc(NCc1ccccc1)n2C)c1ccnc(Nc2ccc(CS(C)(=O)=O)cc2)n1 [Example 4, N^2-benzyl-N^5,1-dimethyl-N^5-[2-({4-[(methylsulfonyl)methyl]phenyl}amino)pyrimidin-4-yl]-1H-benzimidazole-2,5-diamine hydrochloride]	< 100 nM				< 100 nM
(3,5-Bis-trifluoromethyl-phenyl)-N-({[2-(3-methanesulfonylmethyl-phenylamino]-pyrimidin-4-yl]-methyl-amino}-methyl-1H-benzoimidazol-2-yl)-acetamide [Example 161]			+ (+ = pIC50 of 5.0-6.0)	++ (++ = pIC50 of 6.0-7.0)	
N-({[2-(4-Methanesulfonylmethyl-phenylamino)-pyrimidin-4-yl]-methyl-amino}-methyl-1H-benzoimidazol-2-yl)-dimethyl-butyramide [Example 177]			+ (+ = pIC50 of 5.0-6.0)	+++ (+++ = pIC50 of >7.0)	
Thiophene-2-carboxylic acid ({[2-(3-methanesulfonylmethyl-phenylamino)-pyrimidin-4-yl]-methyl-amino}-methyl-1H-benzoimidazol-2-yl)-amide [Example 167]			+ (+ = pIC50 of 5.0-6.0)	+++ (+++ = pIC50 of >7.0)	

More lines, main results first:

IC50 (GST-VEGFR2)	IC50 (Recombinant GST-Tie2)	TIE2-FP (Recombinant GST-Tie2)	VEGF-E (GST-VEGFR2)	Molecule	IC50 [1]
< 100 nM				CN(c1ccc2c(c1)nc(Nc1ccccc1)n2C)c1ccnc(Nc2ccc(CS(C)(=O)=O)cc2)n1 [Example 5, N^5,1-Dimethyl-N^5-[2-({4-[(methylsulfonyl)methyl]phenyl}amino)pyrimidin-4-yl]-N^2-phenyl-1H-benzimidazole-2,5-diamine trifluoroacetic acid]	< 100 nM
< 100 nM				CONS(=O)(=O)c1cc(Nc2nccc(N(C)c3ccc4c(c3)nc(NCc3ccccc3)n4C)n2)ccc1C [Example 6, 5-({4-[[2-(Benzylamino)-1-methyl-1H-benzimidazol-5-yl](methyl)amino]pyrimidin-2-yl}amino)-N-methoxy-2-methylbenzenesulfonamide]	< 100 nM
< 100 nM	1000 to 10000 nM			CN(c1ccc2c(c1)nc(NC(=O)Cc1cccc(F)c1F)n2C)c1ccnc(Nc2ccc(CS(C)(=O)=O)cc2)n1 [Example 226, (2,3-Difluorophenyl)-N-({[2-(4-methanesulfonylmethyl-phenylamino)-pyrimidin-4-yl]-methyl-amino}-methyl-1H-benzoimidazol-2-yl)-acetamide]	
100 to 1000 nM	1000 to 10000 nM			CN(c1ccc2c(c1)nc(NC(=O)C1(c3ccc(Cl)c(Cl)c3)CC1)n2C)c1ccnc(Nc2cccc(CS(C)(=O)=O)c2)n1 [Example 229, 1-(3,4-Dichloro-phenyl)-cyclopropanecarboxylic acid ({[2-(3-methanesulfonylmethyl-phenylamino)-pyrimidin-4-yl]-methyl-amino}-methyl-1H-benzoimidazol-2-yl)-amide]	
< 100 nM	1000 to 10000 nM			CN(c1ccc2c(c1)nc(NC(=O)Cc1ccccc1Cl)n2C)c1ccnc(Nc2ccc(CS(C)(=O)=O)cc2)n1 [Example 230, 2-(2-Chlorophenyl)-N-({[2-(4-methanesulfonylmethyl-phenylamino)-pyrimidin-4-yl]-methyl-amino}-methyl-1H-benzoimidazol-2-yl)-acetamide]	
